# Experimental data from US7767804B2, “Compositions and methods for using a solid support to purify RNA” (Qiagen North American Holdings, Inc., priority 2001, dated 2010).
# Where two headings read alike, the source gives them in different places.
# Experiments:
# [1] = cited from earlier work; for Type of Heat: heat of aqueous solution; for Heat of Aqueous Solution: tabulated, Handbook of Chemistry and Physics
# [2] = Source text: Much time and effort was spent screening detergents that would adequately lyse cells and also stay soluble in the Lysing/Binding Solution of the present invention. The Tween, Triton, Tergitol, Nonidet and Igepal family of detergents were examined along with a number of non-ionic detergent-like compounds.
# [3] = data extrapolated to 20° C. from tabulated data in Handbook of Chemistry and Physics, cited from earlier work
# [4] = approximate maximum solubility in Wash I Solution containing 55% ethanol
# RNase activity = RNase activity with LiCl Wash I Solution, detected as degraded RNA in the final eluted RNA product; format: biochemical
# Source text: For cesium, ammonium, sodium and potassium chloride salts, the maximum solubilities obtained in 55% ethanol were about 2.5 M, 2 M, […] M, and <1 M, respectively. […] It is likely that RNase activity would be detected using the LiCl and LiBr salts as well, at least some proportion of the time, and depending upon the tissue from which the RNA is purified. […] This is probably because solubility definitions are somewhat vague for predicted alcohol solubilities, and the Wash I Solution used in this experiment contained a mixture of water and ethanol, rather than a pure alcohol solution.
# [5] = pH 8.8
Compound,Type of Heat [1],Heat of Aqueous Solution [1],also measured
"[Cl-].[Cs+] [CsCl, cesium chloride]",endothermic,+4.25 kcal/mole,–
"CCOCCOCCO [DGME, Diethyleneglycolmonoethylether]",–,–,Stability/solubility of detergent in the Lysing/Binding Solution over time [2]: stays in solution
"[Cl-].[K+] [KCl, potassium chloride]",endothermic,+4.12 kcal/mole,Reported Solubility in Water [3]: 3000 mM; Reported Solubility in Water ([3]; listed as potassium chloride): approximately 3 M; Measured Solubility in Wash I [4]: < 1000 mM; Measured Solubility in Wash I ([4]; listed as potassium chloride): < 1000 mM
"[Br-].[Li+] [LiBr, lithium bromide]",exothermic,-11.67 kcal/mol,–
"[Cl-].[Li+] [LiCl, lithium chloride]",exothermic,-8.85 kcal/mol,RNase activity detected as degraded RNA in the final eluted RNA product (RNase activity; 2.5 M LiCl Wash I Solution): RNase activity was detected at least half of the time; LiCl needed in the Wash I Solution in order to eliminate the RNase activity (RNase activity; Wash I Solution): at least 5 M; Measured Solubility in Lysis/Binding [5]: at least 4M
"Cl.N [NH4Cl, ammonium chloride]",endothermic,+3.53 kcal/mole,–
"[Cl-].[Na+] [NaCl, sodium chloride]",endothermic,+0.93 kcal/mole,–
"CCCCCCCCCCCC(=O)OCCOCCOCCOCCOCCOCCOCCOCCOCCOCCOCCOCCOCCOCCOCCOCCOCCOCCOCCOCCOCC(OCCOCCOCCOCCOCCOCCOCCOCCOCCOCCOCCOCCOCCOCCOCCOCCOCCOCCOCCOCCO)C1OCC(OCCOCCOCCOCCOCCOCCOCCOCCOCCOCCOCCOCCOCCOCCOCCOCCOCCOCCOCCOCCO)C1OCCOCCOCCOCCOCCOCCOCCOCCOCCOCCOCCOCCOCCOCCOCCOCCOCCOCCOCCOCCO (stereo not drawn) [Tween-20, polyoxylene sorbitan monolaurate]",–,–,Stability/solubility of detergent in the Lysing/Binding Solution over time [2]: saponified or degraded over time and fell out of solution
